# Target: human GluN1/GluN2B NMDA receptors (Homo sapiens, UniProt Q05586+Q13224)
# Experiment: Cell-based calcium flux (FLIPR) assay on cloned human GluN1/GluN2B ion channels expressed in mammalian cells
# Details: standard assay; glutamate ~EC40, 10 μM glycine; stable Tet-On cell line
# Procedure, shortened: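 Tet-On-induced stable cells expressing human GluN1/GluN2B, Calcium 5 dye. Compounds preincubated 5 min (agonist check), then glutamate at ~EC40 plus 10 μM glycine added for 5 min; Mg2+ and buffer composition differ between standard and HTS formats. FLIPR Tetra fluorescence normalised to control wells; (+)MK-801 as antagonist control.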
# Sequence of human GluN1/GluN2B NMDA receptors (Q13224 27-1484, other chains not shown): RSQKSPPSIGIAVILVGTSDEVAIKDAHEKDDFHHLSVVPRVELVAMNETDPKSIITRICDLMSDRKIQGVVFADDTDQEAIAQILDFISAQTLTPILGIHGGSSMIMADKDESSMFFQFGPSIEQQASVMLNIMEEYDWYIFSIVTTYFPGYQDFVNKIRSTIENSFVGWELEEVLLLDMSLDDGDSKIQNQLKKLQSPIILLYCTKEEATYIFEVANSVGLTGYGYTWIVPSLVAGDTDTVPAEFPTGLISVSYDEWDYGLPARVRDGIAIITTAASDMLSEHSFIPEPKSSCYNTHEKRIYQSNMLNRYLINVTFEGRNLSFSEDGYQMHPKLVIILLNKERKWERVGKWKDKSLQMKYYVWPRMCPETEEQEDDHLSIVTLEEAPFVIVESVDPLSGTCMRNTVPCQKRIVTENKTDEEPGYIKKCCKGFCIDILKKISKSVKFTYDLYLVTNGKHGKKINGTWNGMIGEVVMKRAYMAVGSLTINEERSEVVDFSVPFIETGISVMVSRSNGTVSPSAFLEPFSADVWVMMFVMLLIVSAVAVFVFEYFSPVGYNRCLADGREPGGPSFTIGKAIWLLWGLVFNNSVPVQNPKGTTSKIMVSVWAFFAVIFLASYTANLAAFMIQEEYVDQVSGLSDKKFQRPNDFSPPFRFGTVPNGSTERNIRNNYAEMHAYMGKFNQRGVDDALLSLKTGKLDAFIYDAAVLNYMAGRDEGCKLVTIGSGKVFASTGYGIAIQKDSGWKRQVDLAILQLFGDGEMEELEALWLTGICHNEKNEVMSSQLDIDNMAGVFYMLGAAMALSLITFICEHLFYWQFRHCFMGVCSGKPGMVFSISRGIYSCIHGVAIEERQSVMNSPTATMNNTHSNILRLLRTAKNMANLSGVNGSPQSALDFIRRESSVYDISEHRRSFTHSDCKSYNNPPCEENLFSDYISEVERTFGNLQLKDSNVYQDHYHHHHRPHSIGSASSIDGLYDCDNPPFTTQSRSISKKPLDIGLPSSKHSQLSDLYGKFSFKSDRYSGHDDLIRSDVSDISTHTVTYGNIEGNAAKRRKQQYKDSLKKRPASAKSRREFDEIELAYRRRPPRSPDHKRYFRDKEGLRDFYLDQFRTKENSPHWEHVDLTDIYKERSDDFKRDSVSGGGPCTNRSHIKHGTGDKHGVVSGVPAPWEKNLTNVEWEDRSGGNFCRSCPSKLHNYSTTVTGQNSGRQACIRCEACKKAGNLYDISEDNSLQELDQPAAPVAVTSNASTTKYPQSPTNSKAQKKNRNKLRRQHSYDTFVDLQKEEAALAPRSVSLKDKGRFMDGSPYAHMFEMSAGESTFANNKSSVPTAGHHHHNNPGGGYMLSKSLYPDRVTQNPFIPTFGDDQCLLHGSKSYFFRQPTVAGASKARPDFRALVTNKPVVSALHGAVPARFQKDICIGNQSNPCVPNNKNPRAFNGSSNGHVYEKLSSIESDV
row,Structure (SMILES),IC50 [nM]
1,"COc1ncc(-c2ccc(F)c(C(F)F)c2)cc1CN1CCOC1=O [Example 122, 3-[[5-[3-(Difluoromethyl)-4-fluoro-phenyl]-2-methoxy-3-pyridyl]methyl]oxazolidin-2-one]",15
2,"O=C1OCCCN1Cc1cc(-c2ccc(F)c(C(F)F)c2)cnc1C(F)F [Example 123, 3-[[2-(Difluoromethyl)-5-[3-(difluoromethyl)-4-fluoro-phenyl]-3-pyridyl]methyl]-1,3-oxazinan-2-one]",63
3,"O=C1OCCN1Cc1cc(-c2ccc(F)c(C(F)F)c2)cnc1C(F)F [Example 124, 3-[[2-(Difluoromethyl)-5-[3-(difluoromethyl)-4-fluoro-phenyl]-3-pyridyl]methyl]oxazolidin-2-one]",56
4,"O=C1OCCN1Cc1cc(-c2ccc(F)c(OC(F)F)c2)cnc1C(F)F [Example 125, 3-[[5-[3-(Difluoromethoxy)-4-fluoro-phenyl]-2-(difluoromethyl)-3-pyridyl]methyl]oxazolidin-2-one]",39
5,"O=C1OCCCN1Cc1cc(-c2ccc(F)c(OC(F)F)c2)cnc1C(F)F [Example 126, 3-[[5-[3-(Difluoromethoxy)-4-fluoro-phenyl]-2-(difluoromethyl)-3-pyridyl]methyl]-1,3-oxazinan-2-one]",19
6,"Cc1cc(-c2cnc(C(F)F)c(CN3CCCOC3=O)c2)ccc1F [Example 127, 3-[[2-(Difluoromethyl)-5-(4-fluoro-3-methyl-phenyl)-3-pyridyl]methyl]-1,3-oxazinan-2-one]",276
7,"Cc1cc(-c2cnc(C(F)F)c(CN3CCOC3=O)c2)ccc1F [Example 128, 3-[[2-(Difluoromethyl)-5-(4-fluoro-3-methyl-phenyl)-3-pyridyl]methyl]oxazolidin-2-one]",204
8,"O=C1OCCCN1Cc1cc(-c2ccc(Cl)c(OC(F)F)c2)cnc1C(F)F [Example 129, 3-[[5-[4-Chloro-3-(difluoromethoxy)phenyl]-2-(difluoromethyl)-3-pyridyl]methyl]-1,3-oxazinan-2-one]",59
9,"O=C1OCCN1Cc1cc(-c2ccc(Cl)c(OC(F)F)c2)cnc1C(F)F [Example 130, 3-[[5-[4-Chloro-3-(difluoromethoxy)phenyl]-2-(difluoromethyl)-3-pyridyl]methyl]oxazolidin-2-one]",30
10,"O=C1OCCN1Cc1cc(-c2ccc(F)c(C(F)F)c2)cnc1OC(F)F [Example 131, 3-[[2-(Difluoromethoxy)-5-[3-(difluoromethyl)-4-fluoro-phenyl]-3-pyridyl]methyl]oxazolidin-2-one]",153
11,"O=C1OCCN1Cc1cc(-c2ccc(F)c(OC(F)F)c2)cnc1OC(F)F [Example 133, 3-[[2-(Difluoromethoxy)-5-[3-(difluoromethoxy)-4-fluoro-phenyl]-3-pyridyl]methyl]oxazolidin-2-one]",76
12,"C[C@@H]1COC(=O)N1Cc1cc(-c2ccc(F)c(OC(F)F)c2)cnc1OC(F)F [Example 134, (4R)-3-[[-(Difluoromethoxy)-5-[3-(difluoromethoxy)-4-fluoro-phenyl]-3-pyridyl]methyl]-4-methyl-oxazolidin-2-one]",61
13,"CC(F)(F)c1ncc(-c2ccc(F)c(OC(F)F)c2)cc1CN1CCCOC1=O [Example 137, 3-[[2-(1,1-Difluoroethyl)-5-[3-(difluoromethoxy)-4-fluoro-phenyl]-3-pyridyl]methyl]-1,3-oxazinan-2-one]",76
14,"CC(F)(F)c1ncc(-c2ccc(F)c(C(F)F)c2)cc1CN1CC2(CCC2)OC1=O [Example 138, 6-[[2-(1,1-Difluoroethyl)-5-[3-(difluoromethyl)-4-fluoro-phenyl]-3-pyridyl]methyl]-8-oxa-6-azaspiro[3.4]octan-7-one]",549
15,"CC(F)(F)c1ncc(-c2ccc(F)c(OC(F)F)c2)cc1CN1CC2(CC2)OC1=O [Example 146, 5-[[2-(1,1-Difluoroethyl)-5-[3-(difluoromethoxy)-4-fluoro-phenyl]-3-pyridyl]methyl]-7-oxa-5-azaspiro[2.4]heptan-6-one]",212
16,"CC(F)(F)c1ncc(-c2ccc(F)c(OC(F)F)c2)cc1CN1CC2(CCC2)OC1=O [Example 147, 6-[[2-(1,1-Difluoroethyl)-5-[3-(difluoromethoxy)-4-fluoro-phenyl]-3-pyridyl]methyl]-8-oxa-6-azaspiro[3.4]octan-7-one]",392
17,"C[C@H]1CN(Cc2cc(-c3ccc(F)c(OC(F)F)c3)cnc2C(C)(F)F)C(=O)O1 [Example 148, (5S)-3-[[2-(1,1-Difluoroethyl)-5-[3-(difluoromethoxy)-4-fluoro-phenyl]-3-pyridyl]methyl]-5-methyl-oxazolidin-2-one]",147
18,"C[C@@H]1CN(Cc2cc(-c3ccc(F)c(OC(F)F)c3)cnc2C(C)(F)F)C(=O)O1 [Example 149, (5R)-3-[[2-(1,1-Difluoroethyl)-5-[3-(difluoromethoxy)-4-fluoro-phenyl]-3-pyridyl]methyl]-5-methyl-oxazolidin-2-one]",127
19,"O=C1OCCN1Cc1cc(-c2ccc(F)c(OC(F)F)c2)cnc1F [Example 150, 3-((5-(3-(Difluoromethoxy)-4-fluorophenyl)-2-fluoropyridin-3-yl)methyl)oxazolidin-2-one]",11
20,"O=C1OCCCN1Cc1cc(-c2ccc(F)c(OC(F)F)c2)cnc1F [Example 151, 3-((5-(3-(Difluoromethoxy)-4-fluorophenyl)-2-fluoropyridin-3-yl)methyl)-1,3-oxazinan-2-one]",11

# Now from value to molecule:
row,IC50 [nM],Structure (SMILES)
1,121,"COc1ncc(-c2ccc(F)c(C(F)F)c2)cc1CN1C(=O)OC[C@@H]1C [Example 120, (4S)-3-[[5-[3-(Difluoromethyl)-4-fluoro-phenyl]-2-methoxy-3-pyridyl]methyl]-4-methyl-oxazolidin-2-one]"
2,21,"COc1ncc(-c2ccc(F)c(C(F)F)c2)cc1CN1C(=O)OC[C@H]1C [Example 121, (4R)-3-[[5-[3-(Difluoromethyl)-4-fluoro-phenyl]-2-methoxy-3-pyridyl]methyl]-4-methyl-oxazolidin-2-one]"
3,176,"C[C@@H]1COC(=O)N1Cc1cc(-c2ccc(F)c(C(F)F)c2)cnc1OC(F)F [Example 132, (4R)-3-[[2-(Difluoromethoxy)-5-[3-(difluoromethyl)-4-fluoro-phenyl]-3-pyridyl]methyl]-4-methyl-oxazolidin-2-one]"
4,47,"CC(F)(F)c1ncc(-c2ccc(F)c(C(F)F)c2)cc1CN1CCOC1=O [Example 135, 3-[[2-(1,1-Difluoroethyl)-5-[3-(difluoromethyl)-4-fluoro-phenyl]-3-pyridyl]methyl]oxazolidin-2-one]"
5,99,"CC(F)(F)c1ncc(-c2ccc(F)c(C(F)F)c2)cc1CN1CCCOC1=O [Example 136, 3-[[2-(1,1-Difluoroethyl)-5-[3-(difluoromethyl)-4-fluoro-phenyl]-3-pyridyl]methyl]-1,3-oxazinan-2-one]"
6,134,"C[C@@H]1CN(Cc2cc(-c3ccc(F)c(C(F)F)c3)cnc2C(C)(F)F)C(=O)O1 [Example 139, (5R)-3-[[2-(1,1-Difluoroethyl)-5-[3-(difluoromethyl)-4-fluoro-phenyl]-3-pyridyl]methyl]-5-methyl-oxazolidin-2-one]"
7,111,"C[C@H]1CN(Cc2cc(-c3ccc(F)c(C(F)F)c3)cnc2C(C)(F)F)C(=O)O1 [Example 140, (5S)-3-[[2-(1,1-Difluoroethyl)-5-[3-(difluoromethyl)-4-fluoro-phenyl]-3-pyridyl]methyl]-5-methyl-oxazolidin-2-one]"
8,245,"CC(F)(F)c1ncc(-c2ccc(F)c(C(F)F)c2)cc1CN1CC2(CC2)OC1=O [Example 141, 5-[[2-(1,1-Difluoroethyl)-5-[3-(difluoromethyl)-4-fluoro-phenyl]-3-pyridyl]methyl]-7-oxa-5-azaspiro[2.4]heptan-6-one]"
9,2000,"C[C@H]1COC(=O)N1Cc1cc(-c2ccc(F)c(C(F)F)c2)cnc1C(C)(F)F [Example 142, (4S)-3-[[2-(1,1-Difluoroethyl)-5-[3-(difluoromethyl)-4-fluoro-phenyl]-3-pyridyl]methyl]-4-methyl-oxazolidin-2-one]"
10,180,"C[C@@H]1COC(=O)N1Cc1cc(-c2ccc(F)c(C(F)F)c2)cnc1C(C)(F)F [Example 143, (4R)-3-[[2-(1,1-Difluoroethyl)-5-[3-(difluoromethyl)-4-fluoro-phenyl]-3-pyridyl]methyl]-4-methyl-oxazolidin-2-one]"
11,157,"C[C@@H]1COC(=O)N1Cc1cc(-c2ccc(F)c(OC(F)F)c2)cnc1C(C)(F)F [Example 144, (4R)-3-[[2-(1,1-Difluoroethyl)-5-[3-(difluoromethoxy)-4-fluoro-phenyl]-3-pyridyl]methyl]-4-methyl-oxazolidin-2-one]"
12,492,"C[C@H]1COC(=O)N1Cc1cc(-c2ccc(F)c(OC(F)F)c2)cnc1C(C)(F)F [Example 145, (4S)-3-[[2-(1,1-Difluoroethyl)-5-[3-(difluoromethoxy)-4-fluoro-phenyl]-3-pyridyl]methyl]-4-methyl-oxazolidin-2-one]"

# — patent US11447503B2, “Pyridine carbamates and their use as GLUN2B receptor modulators” (JANSSEN PHARMACEUTICA NV, priority 2019, dated 2022)
